From PubChem BioAssay AID463204 (Broad Institute, 2010) come the findings set out here.

The structures appear in SMILES notation. Calls of active or inactive are those of the source.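 How the source made its calls: active means AC50 no more than ten times the top concentration tested, that is within one log above it; inconclusive means flat curve fit with activity between 30% and 70%, or invalid poor fit; inactive means AC50 beyond ten times the top tested dose.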

This assay has as its system S. cerevisiae Mot1-301 ts growth rescue, BacTiter-Glo ATP luminescence. In words: restored Mot1-301 yeast growth at 38.5C – whole organism, S. cerevisiae, Mot1-301 ts mutant, luminescence, dose retest, SUMOylation pathway inhibitor project, confirmation (AID 463204).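 Further: growth at restrictive 38.5 degrees C of Mot1-301 OY566 strain; actives raise luminescence by restoring growth of the ts mutant at high temperature.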
As for `CCOc1c(P(=S)(N(C)C)N(C)C)c(C)nn1-c1ccccc1`, the AC50 (commonly the concentration giving half of the maximal activity seen) was > 42 µM (inactive).

On to `CCN(CC(=O)N1CCCCCC1)S(=O)(=O)c1ccc(Cl)cc1`, for which the AC50 was > 42 µM (inactive).

Take `COCCN(C(=O)CSc1nnc(-c2ccc(C)cc2)n1N)c1c(N)n(Cc2ccccc2)c(=O)[nH]c1=O`: the AC50 was > 42 µM (inactive).

Regarding `Cc1ccc(C)c(N2CCN(C(c3ccncc3)c3nnnn3Cc3ccccc3)CC2)c1` (stereo not drawn), the AC50 is > 21 µM (inactive).

As for `CS(=O)(=O)NCc1ccc(C(=O)NC2CCCCC2)cc1`, the AC50 was > 42 µM (inactive).

Take `Cc1onc(-c2ccccc2Cl)c1C(=O)N1CCc2ccccc2C1`: the AC50 is 34 µM.

Consider `Cc1ccccc1C(=O)/C=C1\NC(=O)CS1`, for which the AC50 was > 21 µM (inactive).

As for `COc1ccc2c(c1)[C@H]1[C@H](CO2)[C@H](c2ccccc2)[C@]2(C)C(=O)Nc3cc(C)ccc3C(=O)N12`, the concentration at half-maximal activity (AC50) is 5.3 µM.

Regarding `CCOC(=O)C1=C(N)c2ccccc2CC1C1CCCC1` (stereo not drawn), the AC50 is > 42 µM (inactive).

With `Cc1nc(N2CCN(c3ccccn3)CC2)c2c(C)c(C(=O)N3CCN(c4ccccc4F)CC3)sc2n1`, the AC50 is > 42 µM (inactive).

In the case of `CCCOc1ccc(N2C(=O)CC(N3CCC(C(=O)OCC)CC3)C2=O)cc1` (stereo not drawn), the AC50 was 13.1 µM.

As for `CCOC(=O)C1CCN(C(=O)c2sccc2Cl)CC1`, the AC50 was > 42 µM (inactive).

With `COC(=O)C1CN(C#N)N(c2ccc(Cl)cc2)C12c1ccccc1-c1ccccc12` (stereo not drawn), the AC50 is 0.74 µM.

Turning to `COc1ccc(-n2c3c(cc(C(=O)NCC(=O)c4ccccc4)c2=O)C(=O)CC(C)(C)C3)cc1`, the AC50 is > 42 µM (inactive).

Regarding `COC(=O)c1ccccc1NC(=O)c1cnn2c(C)cc(C)nc12`, the AC50 is > 42 µM (inactive).

In the case of `CCOC(=O)CSc1nc2ccccc2c(=O)n1CC(C)C`, the AC50 was > 42 µM (inactive).

Turning to `Cc1[nH]c(C)c(S(=O)(=O)NCC(C)c2ccccc2)c1C(=O)N1CCCCC1` (stereo not drawn), the AC50 was > 42 µM (inactive).

Take `COCC(=O)n1nc(-c2ccc(Cl)cc2)nc1NCc1ccc(F)cc1`: the AC50 is > 42 µM (inactive).

As for `COc1ccc2c(c1)OC[C@H]1[C@H]2N2C(=O)c3cc(F)ccc3NC(=O)[C@@]2(C)[C@H]1c1ccccc1`, the concentration at half-maximal activity (AC50) was 3.15 µM.

Take `Cc1ccc(NC(=O)Nc2cccc(C(F)(F)F)c2)nc1`: the AC50 is > 42 µM (inactive).

In the case of `Cc1n[nH]c(=O)c2c(NC(=O)COC(=O)Cc3ccc(Cl)cc3Cl)oc(C)c12`, the AC50 is > 21 µM (inactive).

As to `Cc1cccc(N2C(=O)/C(=C/c3cccnc3)SC2=S)c1`, the AC50 is > 42 µM (inactive).

In the case of `COc1ccc(C(=O)N(CCc2ccccc2)Cc2ccccc2)c(OC)n1`, the AC50 is > 42 µM (inactive).

As for `C=C(C)C(=O)OC1(C(F)(F)F)Oc2cc(C)ccc2NC1=O` (stereo not drawn), the AC50 is 4.67 µM.

For the compound `Cc1nc(CC(=O)N/N=C/c2ccc(OCC(=O)O)cc2)cs1`, the AC50 is > 42 µM (inactive).

Consider `CCNC(=O)NC1c2ccccc2CSc2ccccc21` (stereo not drawn), for which the AC50 is > 42 µM (inactive).

In the case of `Cc1c(C(=O)Nc2cccc(F)c2)cnn1-c1ccccc1`, the AC50 is > 42 µM (inactive).

On to `CC(=O)N1CCCc2cc(S(=O)(=O)Nc3ccc(C)cc3C)ccc21`, for which the AC50 is > 42 µM (inactive).

Consider `Cc1ccc(C(=O)/C=C/Nc2ccccc2C(N)=O)cc1`, for which the AC50 was > 42 µM (inactive).

On to `COc1ccccc1-c1nc2ccccc2nc1-c1ccccc1OC`, for which the AC50 is > 42 µM (inactive).

With `Cc1ccc(S(=O)(=O)N2CCOCC2)cc1NC(=O)COC(=O)CCC(=O)c1cccs1`, the AC50 was > 42 µM (inactive).

As to `CNS(=O)(=O)c1cccc(C(=O)NCC2(N3CCCCC3)CCCCC2)c1`, the concentration at half-maximal activity (AC50) was 39.2 µM.

`CN(c1cccnc1)c1ncnc2[nH]ncc12`: the AC50 was > 42 µM (inactive).

`COc1ccccc1CC(=O)N1CCOCC1`: the AC50 is > 42 µM (inactive).

On to `COC(=O)[C@@H]1C[C@@H]2CC[C@@H](O)C[C@@H]2N1Cc1ccc(N2CCN(C)CC2)cc1`, for which the AC50 was > 42 µM (inactive).

Take `CCOc1ccc(C(=O)Nc2ccc(C(F)(F)F)n(C)c2=O)cc1`: the AC50 was > 42 µM (inactive).

On to `CCOC(=O)N1CCN(C(=O)c2ccc3ccccc3c2)CC1`, for which the AC50 is > 42 µM (inactive).

Consider `CC(C)Cc1cc(CN2CCC(CO)(Cc3ccccc3)CC2)[nH]n1`, for which the AC50 was > 42 µM (inactive).

For `Cc1c(NC(=O)C(C)Sc2nnc(-c3ccccc3)o2)c(=O)n(-c2ccccc2)n1C` (stereo not drawn), the AC50 is > 42 µM (inactive).

In the case of `COc1ccc2c(c1)OC[C@H]1[C@H]2N2C(=O)c3cc(OC)c(OC)cc3NC(=O)[C@@]2(C)[C@H]1c1ccccc1`, the half-maximal activity concentration (AC50) was 5.49 µM.

Consider `Cc1ccc(N(C(=O)CCl)C(C(=O)NC2CCCCC2)c2cccnc2)cc1C` (stereo not drawn), for which the AC50 was 9.72 µM.

For the compound `Cc1[nH]oc(=O)c1N=Nc1ccccc1`, the half-maximal activity concentration (AC50) was 30.6 µM.

`CC1(C)CCC(=O)N2CC[C@H]3C[C@H](OC(=O)Nc4ccc(Br)cc4)C[C@@H]1[C@H]32`: the AC50 is > 42 µM (inactive).

For `O=S(=O)(c1ccccc1)N1CCN(c2nc3ccccc3s2)CC1`, the AC50 is > 42 µM (inactive).

With `O=C1NC(c2ccccc2)C(C(=O)c2cccs2)C(O)(C(F)(F)F)N1` (stereo not drawn), the AC50 is > 42 µM (inactive).

With `O=C(c1cc(F)ccc1F)C1CCCN(C(=O)c2ccc3nccnc3c2)C1` (stereo not drawn), the AC50 was > 42 µM (inactive).

For `CN(CC(=O)Nc1cccc(F)c1)CC(=O)Nc1cccc(S(N)(=O)=O)c1`, the AC50 was > 110 µM (inactive).

`CC(Oc1ccccc1)C(=O)Nc1ccccc1O` (stereo not drawn): the AC50 is > 42 µM (inactive).

On to `Cc1ccc(NC2c3ncccc3C(=O)N2C2CCCCC2)cc1C` (stereo not drawn), for which the AC50 was 32.5 µM.

`O=C(Cn1nc(C(F)(F)F)c2c1CCCC2)N1CCOCC1`: the AC50 was > 42 µM (inactive).

On to `COc1ccc(-c2csc(Nc3cc(C)ccn3)n2)cc1C`, for which the AC50 is > 42 µM (inactive).

As to `CC[n+]1c(/C=C(\C)SC)sc2ccccc21`, the AC50 is 29.5 µM.

With `O=C(COC(=O)Cc1ccsc1)NC1CCCCCC1`, the AC50 was > 42 µM (inactive).

In the case of `C/C(CC1(O)C(=O)Nc2ccccc21)=N\O` (stereo not drawn), the AC50 is > 42 µM (inactive).

Regarding `Cc1ccc(-c2nc3c(=O)n(-c4ccccc4)c4c(c(=O)n(C)c(=O)n4C)c3o2)cc1`, the AC50 was > 42 µM (inactive).

For the compound `CC1=CC(C)(C)N2C(=O)C3(NCCc4c3[nH]c3ccccc43)c3cc(C)cc1c32` (stereo not drawn), the AC50 was 5.51 µM.

On to `CCC(CC)C(=O)Nc1ccc(S(=O)(=O)Nc2nccs2)cc1`, for which the AC50 was > 42 µM (inactive).

On to `CCCCCCCCCCOC(=O)Cn1c(COc2ccccc2OC)[n+](C)c2ccccc21`, for which the AC50 is 13.4 µM.

Regarding `CCOC(=O)C1C(=O)NC(SCC(=O)Nc2nccs2)=C(C#N)C1c1ccccc1OCC` (stereo not drawn), the AC50 was > 42 µM (inactive).

As to `COc1cccc(-c2nn(-c3ccccc3)cc2/C=C(/NC(=O)c2ccccc2)C(=O)O)c1`, the AC50 is > 42 µM (inactive).

In the case of `CC(=O)Nc1ccc(S(=O)(=O)Nc2ccc(S(=O)(=O)Nc3ncccn3)cc2)cc1`, the AC50 was > 42 µM (inactive).

As for `CN(C)CCOC(=O)CCc1ccccc1`, the AC50 is > 42 µM (inactive).

Turning to `CN(C/C=C/c1ccccc1[N+](=O)[O-])Cc1ccccc1`, the AC50 is > 42 µM (inactive).

On to `CC1(C)CC(=O)C(C(=O)c2ccccc2)C(=O)C1Cl` (stereo not drawn), for which the AC50 was > 42 µM (inactive).

With `Cc1ccc(C(C(=O)NC2CCCCC2)N(CCC(C)C)C(=O)CNC(=O)c2ccco2)o1` (stereo not drawn), the AC50 is > 42 µM (inactive).

For the compound `CCN1CCCC1CN(Cc1cc2ccc(C)cc2[nH]c1=O)C(=S)Nc1ccccc1C(=O)OC` (stereo not drawn), the AC50 was > 42 µM (inactive).

For `CCC(CC)C(=O)N1CCCC(c2nc(-c3cccs3)no2)C1` (stereo not drawn), the AC50 was > 42 µM (inactive).

Take `COc1cccc(C2C(C(C)=O)=C(O)C(=O)N2CCc2c[nH]c3ccccc23)c1` (stereo not drawn): the AC50 was > 42 µM (inactive).

On to `Cc1ccc(-n2c(-c3ccco3)nc3c(cnn3-c3ccc(C)cc3)c2=O)cc1`, for which the AC50 is > 42 µM (inactive).

In the case of `Cc1ccccc1-n1ncc2c([N+](=O)[O-])cc([N+](=O)[O-])cc21`, the AC50 was 5.35 µM.

Consider `CS(=O)(=O)N1CCC(Oc2ccccc2C(=O)N2CCNC(=O)C2)CC1`, for which the AC50 was > 42 µM (inactive).

For the compound `CC1=NC2(CCCc3c2no[n+]3[O-])N(O)C1(C)C` (stereo not drawn), the AC50 was > 42 µM (inactive).

As to `CC(=O)Nc1ccc(S(=O)(=O)N(C)CC(=O)Nc2ccc(Br)cc2F)cc1`, the AC50 is > 42 µM (inactive).

As for `CCn1cc(C(=O)NCc2ccccn2)c(=O)c2cc(F)c(N3CCN(C)CC3)cc21`, the AC50 is > 42 µM (inactive).

For the compound `COC(=O)CCCC(=O)NCC1(N(C)Cc2ccccc2)Cc2ccccc2C1`, the AC50 is > 42 µM (inactive).

In the case of `Cc1cccc(Cn2c(C(=O)OC(C)C)cc3c2ccn3C)c1`, the AC50 is > 42 µM (inactive).

Turning to `CCn1c(C)c(C(C)=O)c(N2CCN(c3ccc(F)cc3)CC2)nc1=S`, the AC50 is > 42 µM (inactive).

`Cc1ccc(-n2c(C)cc(/C=N/NC(=O)c3ccncc3)c2C)cc1C`: the AC50 is > 42 µM (inactive).

As to `NC(=O)C1CCN(C2CC(=O)N(c3ccc(F)c(Cl)c3)C2=O)CC1` (stereo not drawn), the half-maximal activity concentration (AC50) is 7.8 µM.

On to `COc1ccc(NC(=O)CN(C)C(=O)/C=C/c2cn(-c3ccccc3)nc2-c2ccc(F)cc2)cc1`, for which the AC50 was > 42 µM (inactive).

For `CCOc1ccccc1NC(=O)CSc1nc(N)c(C#N)cc1C#N`, the AC50 is > 42 µM (inactive).

For the compound `CCOC(=O)CSc1cc(C)nc2ccc(OC)cc12`, the AC50 is > 42 µM (inactive).

As for `COc1ccc(/C=C(/C#N)S(=O)(=O)c2ccc(C)cc2)cc1`, the AC50 is > 21 µM (inactive).

Take `COc1cc2c(cc1NC(=O)c1cccnc1)oc1ccccc12`: the AC50 is > 42 µM (inactive).

For the compound `Cc1nn(C)c(C)c1-c1c(C#N)c(N)nc2c1CCCCCC2`, the AC50 is 16.9 µM.

In the case of `CC(C)CCOCc1nc2sc3c(c2c(=O)[nH]1)CCC(C)C3` (stereo not drawn), the AC50 was > 42 µM (inactive).

In the case of `NC(=O)NC(=O)COC(=O)/C=C/c1cccs1`, the AC50 was > 42 µM (inactive).

Turning to `CCCCSCCCNC(=O)Nc1cccc(OC)c1`, the AC50 was > 42 µM (inactive).
